Results on 38 molecules are retold here after ChEMBL document CHEMBL3352757, “Mono- and di-halogenated histamine, histidine and carnosine derivatives are potent carbonic anhydrase I, II, VII, XII and XIV activators” (Bioorg Med Chem, 2014).

Test [1] has as its target Carbonic anhydrase 2 (Homo sapiens) (UniProt P00918). Briefly: Activation of […] human carbonic anhydrase-2 incubated for 15 mins prior to testing by stopped-flow CO2 hydrase assay.
Test [2] concerns the target Carbonic anhydrase 1 (Homo sapiens) (UniProt P00915). Kind of test: Activation of […] human carbonic anhydrase-1 incubated for 15 mins prior to testing by stopped-flow CO2 hydrase assay.
In test [3] the target is Carbonic anhydrase 7 (Homo sapiens) (UniProt P43166). Briefly: Activation of […] human carbonic anhydrase-7 incubated for 15 mins prior to testing by stopped-flow CO2 hydrase assay.
In test [4] the target is Carbonic anhydrase 14 (Homo sapiens) (UniProt Q9ULX7). Briefly: Activation of transmembrane human carbonic anhydrase-14 incubated for 15 mins prior to testing by stopped-flow CO2 hydrase assay.
The target in test [5] is Carbonic anhydrase 12 (Homo sapiens) (UniProt O43570). Briefly: Activation of transmembrane human carbonic anhydrase-12 incubated for 15 mins prior to testing by stopped-flow CO2 hydrase assay.
Sequence of Carbonic anhydrase 12 (Homo sapiens) (O43570 whole entry): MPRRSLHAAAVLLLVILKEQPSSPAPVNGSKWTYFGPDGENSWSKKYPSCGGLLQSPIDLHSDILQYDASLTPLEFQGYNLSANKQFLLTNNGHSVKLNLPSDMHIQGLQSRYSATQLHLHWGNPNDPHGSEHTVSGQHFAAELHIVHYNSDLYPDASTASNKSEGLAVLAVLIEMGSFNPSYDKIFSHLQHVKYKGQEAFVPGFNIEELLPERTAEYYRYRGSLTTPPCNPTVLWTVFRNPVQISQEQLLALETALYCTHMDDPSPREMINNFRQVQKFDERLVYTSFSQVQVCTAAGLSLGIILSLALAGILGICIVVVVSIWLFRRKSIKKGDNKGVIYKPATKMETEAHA

Sequence of Carbonic anhydrase 14 (Homo sapiens) (Q9ULX7 whole entry): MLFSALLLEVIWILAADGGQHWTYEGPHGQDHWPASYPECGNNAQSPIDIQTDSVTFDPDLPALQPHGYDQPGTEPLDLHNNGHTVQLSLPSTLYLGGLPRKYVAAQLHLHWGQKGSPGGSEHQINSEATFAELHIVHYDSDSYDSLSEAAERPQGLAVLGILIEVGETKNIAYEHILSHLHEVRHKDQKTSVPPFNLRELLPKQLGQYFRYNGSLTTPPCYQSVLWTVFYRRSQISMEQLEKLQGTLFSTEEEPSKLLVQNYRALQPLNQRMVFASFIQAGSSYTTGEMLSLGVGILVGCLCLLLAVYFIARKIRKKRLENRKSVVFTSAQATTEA
Sequence of Carbonic anhydrase 1 (Homo sapiens) (P00915 2-261 limits assumed): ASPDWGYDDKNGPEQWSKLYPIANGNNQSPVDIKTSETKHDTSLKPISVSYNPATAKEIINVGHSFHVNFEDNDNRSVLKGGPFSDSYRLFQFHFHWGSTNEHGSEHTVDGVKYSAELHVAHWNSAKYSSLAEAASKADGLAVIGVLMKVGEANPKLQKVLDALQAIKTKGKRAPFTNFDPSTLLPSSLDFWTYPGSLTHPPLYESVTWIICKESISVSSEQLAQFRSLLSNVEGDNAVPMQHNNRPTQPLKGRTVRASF
Sequence of Carbonic anhydrase 7 (Homo sapiens) (P43166 whole entry): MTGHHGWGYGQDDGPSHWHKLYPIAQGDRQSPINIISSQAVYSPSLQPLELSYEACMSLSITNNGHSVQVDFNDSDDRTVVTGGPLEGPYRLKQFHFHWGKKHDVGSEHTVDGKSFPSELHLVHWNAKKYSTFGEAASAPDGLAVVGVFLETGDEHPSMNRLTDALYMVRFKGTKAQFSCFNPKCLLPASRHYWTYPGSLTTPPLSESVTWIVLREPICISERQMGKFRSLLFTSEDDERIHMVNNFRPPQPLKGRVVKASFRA

For `COC(=O)[C@@H](N)Cc1nc[nH]c1I`, the KA in test [1] was 0.32 µM; in test [2] it was 0.0012 µM; in test [3] it was 6.2 µM; in test [4], 7.8 µM; in test [5], 14.3 µM.
For the molecule `COC(=O)[C@H](Cc1nc(Br)[nH]c1Br)NC(=O)CCNC(=O)OC(C)(C)C`, the KA in test [1] was 34.8 µM; in test [2], 21.5 µM; in test [3] it was 4 µM; in test [4], 40.8 µM; in test [5], 31.6 µM.
`CC(C)(C)OC(=O)NCCc1nc(I)[nH]c1I`: the KA in test [1] is 36.7 µM; in test [2], 12.1 µM; in test [3], 45.6 µM; in test [4] it was 37.1 µM; in test [5], 35 µM.
For the molecule `COC(=O)[C@H](Cc1nc[nH]c1I)NC(=O)OC(C)(C)C`, the KA in test [1] was 0.012 µM; in test [2], 0.0009 µM; in test [3], 38.5 µM; in test [4], 13.5 µM; in test [5], 6.1 µM.
As to `COC(=O)[C@H](Cc1nc[nH]c1Br)NC(=O)CCNC(=O)OC(C)(C)C`, the KA in test [1] came to 0.97 µM; in test [2], 2.6 µM; in test [3] it was 5.2 µM; in test [4], 36.5 µM; in test [5], 24.9 µM.
Turning to `COC(=O)[C@@H](N)Cc1nc[nH]c1Cl`, the KA came out at 13.1 µM in test [1]; 21.3 µM in test [2]; 36.1 µM in test [3]; 6.4 µM in test [4]; 0.078 µM in test [5].
As to `CC(C)(C)OC(=O)NCCc1nc(Br)[nH]c1Br`, the KA in test [1] came to 28.5 µM; in test [2], 13.3 µM; in test [3], 28.3 µM; in test [4], 29.5 µM; in test [5] it was 37.4 µM.
Regarding `NCCc1nc(Cl)[nH]c1Cl`, the KA in test [1] is 0.032 µM; in test [2], 0.018 µM; in test [3], 0.041 µM; in test [4] it was 38.9 µM; in test [5], 5.7 µM.
Regarding `CC(C)(C)OC(=O)NCCc1nc[nH]c1Cl`, the KA in test [1] amounted to 50.2 µM; in test [2] it was 5.4 µM; in test [3] it was 24.9 µM; in test [4], 45.2 µM; in test [5] it was 18.8 µM.
Regarding `COC(=O)[C@H](Cc1nc(Cl)[nH]c1Cl)NC(=O)CCN`, the KA was 10.9 µM in test [1]; 22.5 µM in test [2]; 0.01 µM in test [3]; 10.3 µM in test [4]; 0.072 µM in test [5].
Regarding `COC(=O)[C@@H](N)Cc1nc[nH]c1Br`, the KA in test [1] is 10.4 µM; in test [2], 13.6 µM; in test [3], 12.3 µM; in test [4], 5.2 µM; in test [5] it was 1.01 µM.
As for `COC(=O)[C@H](Cc1nc[nH]c1Cl)NC(=O)CCNC(=O)OC(C)(C)C`, the KA is 48.5 µM in test [1]; 34.3 µM in test [2]; 12.1 µM in test [3]; 7.9 µM in test [4]; 2.5 µM in test [5].
In the case of `COC(=O)[C@@H](N)Cc1nc(Br)[nH]c1Br`, the KA in test [1] was found to be 1.08 µM; in test [2], 1.4 µM; in test [3], 9.7 µM; in test [4] it was 22.1 µM; in test [5] it was 0.83 µM.
Take `CC(C)(C)OC(=O)NCCc1nc(Cl)[nH]c1Cl`: the KA was found to be 24.8 µM in test [1]; 16.5 µM in test [2]; 13.1 µM in test [3]; 28.1 µM in test [4]; 40.2 µM in test [5].
Turning to `COC(=O)[C@@H](N)Cc1c[nH]cn1`, the KA in test [1] is 10.4 µM; in test [2], 0.02 µM; in test [3], 0.88 µM; in test [4], 0.93 µM; in test [5], 0.91 µM.
In the same order, the values of `NCCc1nc(Br)[nH]c1Br` are 0.008 µM, 0.012 µM, 0.74 µM, 13.1 µM and 25.2 µM.
Take `COC(=O)[C@@H](N)Cc1nc(I)[nH]c1I`: the KA in test [1] was found to be 1.12 µM; in test [2] it was 0.96 µM; in test [3] it was 3.6 µM; in test [4], 24.3 µM; in test [5] it was 10.9 µM.
For the molecule `COC(=O)[C@@H](N)Cc1nc(Cl)[nH]c1Cl`, the KA is 10.5 µM in test [1]; 31.2 µM in test [2]; 24.9 µM in test [3]; 20.6 µM in test [4]; 27.1 µM in test [5].
`COC(=O)[C@H](Cc1nc[nH]c1Br)NC(=O)OC(C)(C)C`: the KA in test [1] was 26.5 µM; in test [2], 7.3 µM; in test [3] it was 40.2 µM; in test [4], 0.92 µM; in test [5], 10.7 µM.
In the same order, the values of `NCCc1nc[nH]c1Cl` are 0.115 µM, 0.021 µM, 15.3 µM, 38.7 µM and 12.1 µM.
Taken in the same sequence, the figures for `NCCc1nc[nH]c1Br` were 0.096 µM, 0.015 µM, 5.2 µM, 16.2 µM and 3.2 µM.
As for `COC(=O)[C@H](Cc1nc[nH]c1I)NC(=O)CCNC(=O)OC(C)(C)C`, the KA in test [1] was determined as 5.2 µM; in test [2], 4.3 µM; in test [3] it was 0.81 µM; in test [4], 24.6 µM; in test [5], 28.7 µM.
For the molecule `COC(=O)[C@H](Cc1nc(Cl)[nH]c1Cl)NC(=O)OC(C)(C)C`, the KA in test [1] is 40.3 µM; in test [2] it was 2.45 µM; in test [3] it was 50.7 µM; in test [4], 1.4 µM; in test [5], 25.3 µM.
As for `NCCc1nc(I)[nH]c1I`, the KA in test [1] was determined as 0.001 µM; in test [2] it was 0.0007 µM; in test [3], 1.39 µM; in test [4], 15.5 µM; in test [5], 34.6 µM.
Take `COC(=O)[C@H](Cc1nc[nH]c1Br)NC(=O)CCN`: the KA in test [1] came to 1.78 µM; in test [2], 2.1 µM; in test [3] it was 1.02 µM; in test [4], 28.4 µM; in test [5], 30.7 µM.
For the molecule `COC(=O)[C@H](Cc1nc[nH]c1Cl)NC(=O)OC(C)(C)C`, the KA in test [1] turned out to be 29 µM; in test [2] it was 10.1 µM; in test [3], 47.6 µM; in test [4], 24.1 µM; in test [5], 42.5 µM.
For `COC(=O)[C@H](Cc1nc(Br)[nH]c1Br)NC(=O)OC(C)(C)C`, the KA came to 0.96 µM in test [1]; 0.032 µM in test [2]; 13.1 µM in test [3]; 3.51 µM in test [4]; 1.62 µM in test [5].
As for `COC(=O)[C@H](Cc1nc(I)[nH]c1I)NC(=O)CCN`, the KA was found to be 2.9 µM in test [1]; 21.4 µM in test [2]; 3.5 µM in test [3]; 20.1 µM in test [4]; 10.5 µM in test [5].
For the molecule `CC(C)(C)OC(=O)NCCc1nc[nH]c1I`, the KA in test [1] was found to be 13.6 µM; in test [2], 29.3 µM; in test [3], 21.5 µM; in test [4], 30.9 µM; in test [5], 44.3 µM.
Regarding `COC(=O)[C@H](Cc1nc(I)[nH]c1I)NC(=O)OC(C)(C)C`, the KA in test [1] worked out at 0.013 µM; in test [2] it was 0.0015 µM; in test [3], 10.3 µM; in test [4], 34.9 µM; in test [5], 64.7 µM.
Regarding `COC(=O)[C@H](Cc1nc[nH]c1I)NC(=O)CCN`, the KA in test [1] is 1.6 µM; in test [2], 7.6 µM; in test [3] it was 1.06 µM; in test [4] it was 39.2 µM; in test [5], 40.1 µM.
As for `COC(=O)[C@H](Cc1nc[nH]c1Cl)NC(=O)CCN`, the KA in test [1] stood at 30.9 µM; in test [2] it was 1.25 µM; in test [3] it was 0.013 µM; in test [4], 15.3 µM; in test [5], 21.5 µM.
For `COC(=O)[C@H](Cc1nc(Br)[nH]c1Br)NC(=O)CCN`, the KA came out at 4.1 µM in test [1]; 30.7 µM in test [2]; 0.0081 µM in test [3]; 18.9 µM in test [4]; 1.84 µM in test [5].
Turning to `COC(=O)[C@H](Cc1nc(I)[nH]c1I)NC(=O)CCNC(=O)OC(C)(C)C`, the KA in test [1] was determined as 8.2 µM; in test [2] it was 18.7 µM; in test [3] it was 0.74 µM; in test [4], 52.7 µM; in test [5], 40.5 µM.
Take `CC(C)(C)OC(=O)NCCc1nc[nH]c1Br`: the KA in test [1] was found to be 44.5 µM; in test [2] it was 7.1 µM; in test [3], 10.4 µM; in test [4], 34.7 µM; in test [5], 52.8 µM.
In the same order, the values of `COC(=O)[C@H](Cc1nc(Cl)[nH]c1Cl)NC(=O)CCNC(=O)OC(C)(C)C` are 18.6 µM, 10.1 µM, 0.12 µM, 33.5 µM and 9.7 µM.
In the same order, the values of `COC(=O)[C@H](Cc1c[nH]cn1)NC(=O)CCN` are 32 µM, 10.9 µM, 0.84 µM, 0.71 µM and 0.96 µM.
In the same order, the values of `NCCc1nc[nH]c1I` are 0.065 µM, 0.0009 µM, 7.6 µM, 7.1 µM and 0.9 µM.
